From patent US20040171680A1, “Treating Syndrome X with substituted tetralins and indanes” (priority 2002, published 2004)

Biological target: T1, PPARγ (Homo sapiens, UniProt P37231)
T1 construct: Following the challenge of the preadipocytes, cells may be lysed with lysis buffer; endogenous in cells; host or cells: preadipocytes
T1 sequence (P37231 1-505): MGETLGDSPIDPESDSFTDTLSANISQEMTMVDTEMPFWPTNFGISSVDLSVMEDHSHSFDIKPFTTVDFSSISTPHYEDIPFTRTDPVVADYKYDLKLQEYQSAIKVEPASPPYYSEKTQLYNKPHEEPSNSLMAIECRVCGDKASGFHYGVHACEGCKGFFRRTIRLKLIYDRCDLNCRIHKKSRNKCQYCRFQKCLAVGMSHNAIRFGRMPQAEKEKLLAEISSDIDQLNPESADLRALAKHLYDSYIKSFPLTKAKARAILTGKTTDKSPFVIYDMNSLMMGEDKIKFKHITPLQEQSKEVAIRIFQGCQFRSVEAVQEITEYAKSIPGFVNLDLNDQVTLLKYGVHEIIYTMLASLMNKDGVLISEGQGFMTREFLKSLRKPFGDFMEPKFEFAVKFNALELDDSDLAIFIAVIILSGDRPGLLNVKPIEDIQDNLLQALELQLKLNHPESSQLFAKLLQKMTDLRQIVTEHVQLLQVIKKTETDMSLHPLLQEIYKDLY
Experiment: aP2 Assay for PPAR gamma Agonists (bDNA aP2 mRNA in preadipocytes)
Type: cell-based
Details: values in square brackets
Description: aP2 Assay for PPAR gamma Agonists
The procedure is described in detail in Burris et al., Molecular Endocrinology, 1999, 13:410, which is hereby incorporated by reference in its entirety, and aP2 assay results of agonist intrinsic activity may be presented as fold increase over vehicle in induction of aP2 mRNA production.
Twenty-four hours after the initial seeding of the 96-well plates by hand (around 20,000/well), the differentiation assay may be initiated. Medium may be removed and replaced with […] of differentiation medium containing vehicle (DMSO) or test compounds. Cells may be returned to incubator for 24 hours culture. At the termination of the challenge, medium may be removed and 100 ul of lysis buffer may be added to initiate the bDNA aP2 mRNA assay. The branched DNA assay may be performed according to the manufacturer's protocol (Bayer Diagnostics; Emeryville, Calif.). Result may be expressed as the fold increase of aP2 mRNA production activated over vehicle controls. EC50's and Emax may be determined by non-linear regression with a sigmoidal fit curve.
Following the challenge of the preadipocytes, cells may be lysed with lysis buffer (Bayer Diagnostics) containing the aP2 oligonucleotides. After a 15 minute incubation at 53° C. or 30 minutes at 37° C. incubator, 70 ul of the lysis buffer from each well may be added to a corresponding capture well (preincubated with 70 ul of blocking buffer (Bayer Diagnostics)). The capture plate may be incubated overnight at 53° C. in a plate incubator (Bayer Diagnostics). After this incubation, the bDNA and labeled probes may be annealed as directed by the manufacturer. Following a 30-minute incubation with the luminescent alkaline phosphatase substrate, dioxitane, the luminescence may be quantitated in a Dynex MLX microtiter plate luminometer. Oligonucleotide probes designed to anneal to the aP2 mRNA and function in the bDNA mRNA detection system are designed with ProbeDesigner software (Bayer Diagnostics). This software package analyzes a target sequence of interest with a series of algorithms in order to determine which regions of the sequence can perform as locations for capture, label, or spacer probe annealing. The sequences of the oligonucleotides are as follows: […]

- EC50: > 3 µM
Compound: CCN(C(=O)Nc1ccc(OC(F)(F)F)cc1)C1CCc2cc(SC(C)(C)C(=O)O)c(F)cc2C1 (stereo not shown) [Example 50, 2-{6-[1-Ethyl-3-(4-trifluoromethoxyphenyl)ureido]-3-fluoro-5,6,7,8-tetrahydronaphthalen-2-ylsulfanyl}-2-methylpropionic acid]
